Test results as given in patent US9416103B2, “Use of the aminoalkylindole JWH-073-M4 and related compounds as neutral CB1 receptor antagonists for the treatment of alcoholism, drug abuse, obesity, and obesity-related diseases” (The Board of Trustees of the University of Arkansas, priority 2012, dated 2016).

Key:
NIH Swiss mice [1] = experiment: Catalepsy, horizontal bar test; assay type: in vivo, mouse; settings: M4 10 mg/kg i.p. + JWH-018 3 mg/kg i.p.
NIH Swiss mice [2] = experiment: Locomotor activity by biotelemetry (cannabinoid tetrad); assay type: in vivo, mouse; settings: M4 10 mg/kg i.p. + JWH-018 3 mg/kg i.p.
[3] = target: CB1Rs endogenously expressed in Neuro2A cells (Mus musculus (Mouse), UniProt P47746); experiment: Adenylyl cyclase (AC) inhibition via CB1Rs endogenously expressed in Neuro2A cells; assay type: cell-based
hCB2Rs = hCB2Rs (Homo sapiens (Human), UniProt P34972); experiment: Inhibition of forskolin-stimulated cAMP production (adenylyl cyclase) in intact CHO-hCB2R cells; assay type: cell-based
Procedure: Adenylyl cyclases are a family of membrane-bound enzymes that catalyze the intracellular production of the second messenger cAMP from ATP. Adenylyl cyclase activity is modulated by activated G-proteins: Gs-proteins stimulate activity, while Gi/o-proteins are inhibitory. Thus, agonists of G-protein coupled receptors (GPCRs) coupled to Gi/o-proteins, such as hCB2Rs, decrease cAMP production due to inhibition of adenylyl cyclase activity. In this assay, intact CHO-hCB2R cells are preincubated with [^3H]-adenine and treated with forskolin (10 or 30 μM) to stimulate adenylyl cyclase activity.
A functional assay screen for the inhibition of adenylate cyclase (AC) activity was chosen as the subsequent assay. […] Reaching full-receptor occupancy, which is predicted to produce maximal efficacy, is desirable at 10 μM concentration of all the compounds was used.

[4] = test system: mice trained to discriminate THC; experiment: THC drug discrimination (generalization of JWH-018 to THC); assay type: in vivo, mouse; settings: M4 10 mg/kg i.p. + JWH-018 1 mg/kg; training dose THC 10 mg/kg i.p.
NIH Swiss mice [5] = experiment: Core body temperature by biotelemetry (cannabinoid tetrad, hypothermia); assay type: in vivo, mouse
Procedure: Prior to surgery (see below), male NIH Swiss mice (Harlan Sprague Dawley Inc., Indianapolis, Ind.), weighing approximately 25-30 g, were housed 3 animals per Plexiglas® cage (15.24×25.40×12.70 cm) in a temperature-controlled room in an Association for Assessment and Accreditation of Laboratory Animal Care (AAALAC) accredited animal facility at the University of Arkansas for Medical Sciences. Room conditions were maintained at 22±2° C. and 45-50% humidity. Lights were set to a 12-h light/dark cycle. Animals were fed Lab Diet rodent chow (Laboratory Rodent Diet #5001, PMI Feeds, Inc., St. Louis, Mo.) and water ad libitum throughout testing Animals were acclimated to the laboratory environment for ˜7 days prior to experiments, and to the biotelemetry chambers for at least 2 hours prior to initiation of data acquisition. All test conditions used groups of 5 or 6 mice, and all mice were drug-naïve (with the exception of surgical anesthetics) prior to testing.
Cannabinoid effects on core temperature and locomotor activity were measured using surgically-implanted biotelemetry probes. Following appropriate anesthetization with ketamine (100 mg/kg, intraperitoneal [i.p.]) and xylazine (10 mg/kg, i.p.), the abdominal area of each mouse was shaved and sanitized with iodine swabs. A rostral-caudal cut approximately 1.5 cm in length was made with skin scissors, providing access to the intraperitoneal cavity. A cylindrical glass-encapsulated radiotelemetry probe (model ER-4000 E-Mitter, Mini Mitter Co., Inc., Bend, Oreg.) was then inserted, and the incision was closed using absorbable 5-0 chromic gut suture material. At least 7 days were imposed between surgery and experimental observation of cannabinoid effects to allow incisions to heal and mice to recover normal body weights. Following surgery, implanted mice were individually housed in Plexiglas® mouse cages (15.24×25.40×12.70 cm) for the duration of all temperature and locomotor activity experiments Implanted transmitters produced activity- and temperature-modulated signals that were transmitted to a receiver (model ER-4000 Receiver, Mini Mitter Co., Inc., Bend, Oreg.) underneath each mouse cage. Receivers were housed in light- and sound-attenuating cubicles (Med Associates model ENV-022MD, St. Albans, Vt.) equipped with exhaust fans, which further masked ambient laboratory noise. On experimental days, mice were weighed, marked, and returned to their individual cages during which at least 1 hr of baseline data were collected. […]. Mice were then placed into a new cage with fresh bedding to stimulate exploratory behavior. Temperature and locomotor activity data were collected at regular 5-min intervals and processed simultaneously by the Vital View data acquisition system (Mini Mitter Co., Inc., Bend, Oreg.) for at least 10 hrs.
For core body temperature experiments, the area under the curve (AUC) was calculated using a trapezoidal rule from 0-500 minutes, and statistical significance (P<0.05) was determined using a one-way ANOVA, followed by Tukey's HSD post-hoc test. For locomotor activity, total locomotor counts were summed from 0-800 minutes. Because locomotor, analgesia and catalepsy data were not normally distributed, Kruskal-Wallis one-way ANOVA on ranks were performed, and all pair-wise comparisons were then made using the Tukey's HSD tests. In vivo statistical calculations were performed using SigmaStat 3 (Systat Software, Inc., San Jose, Calif.).

NIH Swiss mice [6] = experiment: Analgesia, tail-flick latency; assay type: in vivo, mouse; settings: M4 10 mg/kg i.p. + JWH-018 3 mg/kg i.p.
mice = experiment: Thermoregulation assay, antagonism of JWH-073-induced hypothermia; assay type: in vivo, mouse; settings: 10 mg/kg
From the text: Our hypothesis is that a dual activity CB1R antagonist/CB2R agonist will reduce the reinforcing effects of EtOH as well as reduce the conditioned rewarding effects of ethanol in mice. The compounds selected will firstly be put through a thermoregulation assay as a screen for potential cannabinoid receptor activity. Thermoregulation will be used as a screen because of the well-established hypothermic effects seen with the use of cannabinoid ligands. This assay was done using glass radiotelemetry probes that were surgically implanted in each mouse, which monitor core temperature in response to drug administration. […] This screen does indeed confirm the in vivo cannabinoid activity of TV-5-249 and TV-6-41 and it also illustrates the evident antagonist effects against agonist induced hypothermia.

| SMILES | antagonism of JWH-018-induced catalepsy (NIH Swiss mice [1]) | antagonism of JWH-018-induced locomotor suppression (NIH Swiss mice [2]) | inhibition of adenylyl cyclase activity, reversed by O-2050 (1 μM) ([3]; M4 1 μM) | IC50 ([3]; Neuro2A cells) [nM] | inhibition of AC-activity via CB1Rs, concentration-effect ([3]; Neuro2A cells) | inhibition of cAMP production relative to vehicle, concentration effect curve (hCB2Rs; 10 μM forskolin, n=1) [%] | inhibition of intracellular cAMP production, single concentration (hCB2Rs; 10 μM, 30 μM forskolin) [%] | potency (IC50) of inhibition of intracellular cAMP production (hCB2Rs; CHO-hCB2R cells) | antagonism of generalization of JWH-018 to THC (THC-appropriate responding) [4] | JWH-018-induced hypothermia blunted by co-administration, core body temperature (NIH Swiss mice [5]; M4 10 mg/kg i.p. co-administered with JWH-018 3 mg/kg i.p.) | change in body temperature, given alone (NIH Swiss mice [5]; M4 10 mg/kg, i.p., alone) | antagonism of JWH-018-induced analgesia (NIH Swiss mice [6]) | minimum core body temperature recorded (NIH Swiss mice [5]; 10 mg/kg, i.p.) [°C] | time to maximal core body temperature reduction (NIH Swiss mice [5]; 10 mg/kg, i.p.) [min] | hypothermic effect (mice) |
| --- | --- | --- | --- | --- | --- | --- | --- | --- | --- | --- | --- | --- | --- | --- | --- |
| CCCCn1cc(C(=O)c2cccc3ccccc23)c2cccc(O)c21 [Compound M4] | no difference | no difference | inhibited activity of the downstream intracellular effector adenylyl cyclase | 225 | 50-60% | 81 | 48 | nanomolar potency | No change in THC-appropriate responding | 33.09+/−0.70 °C | no significant change in body temperature | no difference |  |  |  |
| CCCCn1cc(C(=O)c2cccc3ccccc23)c2ccccc21 [JWH-073, (1-butyl-1H-indole-3-yl)-1-naphthalenyl-methanone] |  |  |  |  |  |  |  |  |  |  |  |  | 29.74±1.44 | 54.17 ± 5.23 | profound hypothermic effect |
